Source: patent US11369607B2, “Compositions, systems, and methods for generating inner ear hair cells for treatment of hearing loss” (Massachusetts Institute of Technology, priority 2014, dated 2022)
Entries after “also recorded” stand apart in the source; their conditions may differ.

Assays:
[1] = system: expanded Lgr5-positive cells; assay: Differentiation of expanded Lgr5-positive cells to hair cells; format: cell-based, mouse; settings: in differentiation media
Experimental: Differentiation protocol: For differentiation of expanded Lgr5-positive cells, following 10 days of culture in the cell expansion condition (EFICVP6), the cell colonies were transferred to fresh Matrigel and further cultured in differentiation media. Differentiation media contains Notch pathway inhibitor (e.g. DAPT, D, 5 μM, or LY411575, LY, 5 μM), with or without Gsk3β inhibitor (e.g. CHIR99021). Media were changed every other day. Following another 6-10 days of incubation with differentiation media, the colonies were harvested for qPCR analysis or fixed with 4% PFA and immunostained with hair cell markers Myo7a and Prestin.
RNA extraction and quantitative real-time PCR (qPCR): RNA was isolated from cultured cells (RNeasy Mini Kit; Qiagen) according to the manufacturer's protocol. Quantitative real-time PCR was performed with QuantiTect Probe PCR kit (Qiagen) using commercially available primers and TaqMan probes (Myo7a and Hprt Life Technologies).
Immunocytochemistry staining: Colonies were fixed at room temperature in 4% paraformaldehyde/PBS for 15-20 min and then washed twice with PBS containing 0.1% BSA. Cells were then permeabilized with 0.25% Triton X-100 in PBS in 4° C. for 30 minutes. Following 2 washes with PBS containing 0.1% BSA, the cells were incubated with blocking solution (Power Block, Biogenex) for 1 h. Diluted primary antibodies (in Power Block solution) was applied for 4 h at room temperature or overnight at 4° C. Primary antibodies used were Myosin VIIA (1:500, Rabbit polyclonal from Proteus Biosciences) and Prestin (1:400, Goat polyclonal from Santa Cruz). After 3 washes for 5 minutes each, secondary antibodies (Alexafluor 594 and 647-conjugated; Invitrogen) were added at 1:500 dilution and incubated at room temperature for 30 minutes. Nuclei were visualized with 4,6-diamidino-2-phenylindole (DAPI, Vector Laboratories). Staining was visualized with inverted fluorescence microscope (EVOS; Advanced Microscopy Group).

[2] = system: Atoh1-GFP inner ear epithelial cells; assay: Spontaneous hair cell differentiation of cultured Atoh1-nGFP inner ear epithelial cells; format: cell-based, mouse
[3] = In vitro drug release from poloxamer-407 hydrogel (dialysis bag method); format: physicochemical; settings: for initial burst release / cumulative release: pH 7.4, 37° C.; for cumulative release: in 48 h
Experimental: To understand the release kinetics of encapsulated drugs from poloxamer-407 hydrogels, in vitro release studies were performed using dialysis bag method at pH 7.4 and 37° C. temperature conditions. Briefly, sealed dialysis bag (3.5-5 kDa cutoff) containing 30 μL gel suspended in 1 ml PBS was placed in 10 mL of the release medium (PBS). The release medium was stirred at 100 rpm to prevent the formation of a stagnant layer at the membrane and outer solution interface. 1 mL aliquots were taken from the medium at predetermined intervals for the analysis of drugs using HPLC, and replaced with an equal volume of fresh medium.

[4] = system: Lgr5+ supporting cells isolated from the cochlea; assay: Expansion of Lgr5-GFP inner ear progenitor cells in Matrigel based 3D culture; format: cell-based, mouse; settings: for GFP+ cell number / GFP+ percentage: named factor removed from EFICVP6, 10 days; for Lgr5-GFP expression, effect of addition / cell proliferation, effect of addition: neonatal Lgr5 inner ear progenitor cells
Experimental: Cell culture: Heterozygous Lgr5-EGFP-IRES-CreERT2 mice were obtained from Jackson Labs, and neonatal P2-P5 mice were used for cell isolation. Organ of Corti was isolated from Lgr5-GFP mice and further dissociated into single cells using trypsin. Cells were then cultured as previously described (Yin et al, 2014). Briefly, cells were entrapped in Matrigel and plated at the center of wells in a 24-well plate. Following polymerization of Matrigel, 500 μl of culture media (Advanced DMEM/F12 with N2 and B27) was added, containing growth factors including EGF (50 ng/ml) (epidermal growth factor), bFGF (20 ng/ml) (fibroblast growth factor), and IGF1 (50 ng/ml) (insulin-like growth factor 1), and small molecules including CHIR99021 (5 μM), valproic acid (1 mM), 2-phospho-L-ascorbic acid (280 μM), and 616452 (2 μM). Y-27632 (10 μM) was added for the first 2 days. In some experiments, bFGF was used at 50 ng/ml.
For single cell isolation, the organs of Corti were then treated with Cell Recovery Solution (Corning) for 1 h to separate cochlear epithelium from the underlying mesenchyme. Epithelia were then collected and treated with Trypsin (Life Technologies) for 15-20 minutes at 37° C. Single cells obtained by mechanical trituration were filtered by cell strainer (40 μm) and washed with cell culture media. For FACS sorting of Lgr5-high and Lgr5-Low cells, FACS ARIA (BD) was used and Lgr5-GFP was used as indicator of Lgr5 level. Sorted single cells were cultured in Matrigel in inner ear cell culture media with supplement growth factors and small molecules. Y-27632 was added in the first 2 days.
FACS analysis: Cell culture media was removed and Trypsin was added. After incubation at 37° C. for 10-20 min, colonies were dissociated into single cells. Live-cell number were counted using a hemocytometer and trypan blue staining. The cells were then stained with propidium iodide (PI) and analyzed with flow cytometry. The number of GFP-positive cells was calculated by multiplying the total number of cells by the percentage of GFP-positive cells.

[5] = system: Lgr5 inner ear cells from adult mice; assay: Expansion of Lgr5-GFP inner ear cells from adult mice; format: cell-based; settings: adult mouse
Experimental: FIGS. 13A-C depict In vitro culture of Lgr5-GFP inner ear progenitor cells from adult mouse. FIG. 13A: Isolated cochlear from 9-week old mice was cultured in the presence of EFICVP6 for 9 days. Showing out-growth of Lgr5-GFP cells. FIG. 13B: The same culture at day 13. Showing expansion of Lgr5-GFP cells. FIG. 13C: Passage 2 of the same culture at day 5 after passage (Day 19). All scale bars: 100 μm. Specifically, cochlear was isolated from 9-week old adult mice, directly mixed with Matrigel and plated at the center of well of a 24-well plate. Cell culture medium in the presence of EGF, bFGF, IGF-1, CHIR99021, VPA, L-Ascorbic acid 2-phosphate (pVc) and a TGF-β RI Kinase Inhibitor II (616452) was added following gelation of Matrigel. The tissue was cultured for 2 weeks until Lgr5-GFP cells expanded and form out-growth. After 2 weeks (Day 14) the tissue was then dissociated using trypsin, re-plated and further cultured.
For adult tissue, the stria vascularis was removed but the epithelium was not removed from the underlying mesenchyme due to the limited amount of intact cochlea that could be extracted. For adult cells, additional small molecule TTNPB (2 μM, Tocris) was added and the complete media contain EGF, bFGF, IGF-1, CHIR99021, VPA, pVc, 616452 and TTNPB.

[6] = Thermal gelation of poloxamer-407 formulations (visual tube inversion method); format: physicochemical
Experimental: Poloxamer-407 hydrogels were prepared using the “cold-method”. Briefly, a weighed amount of poloxamer-407 was added to 40 ml cold ultra pure water or cold PBS (pH 7.4), and stirred overnight at 4° C. on a magnetic stir plate to effect complete solubilization. Multiple concentrations of poloxamer-407 solution ranging from 18% (w/w) to 25% (w/w) were prepared. Hydrophilic drugs, including valproic acid (VPA) and phosphorylated ascorbic acid (PAC) were added to the 5 ml poloxamer-407 solution and dissolved at 4° C. on a magnetic stir plate. Weight ratio of poloxamer-407 to the drug was varied to understand the effects of drugs on the gelation properties of poloxamer-407, and to determine the optimal formulation that gels at 37° C. with maximum possible loading of the hydrophilic drugs. The gelation temperatures of the formulations were determined by the “visual tube inversion method”. Briefly, glass vials containing poloxamer 407 solutions, with or without the hydrophilic drugs were placed in a water bath.
To encapsulate hydrophobic drugs, including CHIR 99021 (CHIR), Repsox and TTNPB, appropriate volumes from their stock solutions in DMSO were added into the poloxamer-407 solutions containing the hydrophilic drugs, and mixed by pipetting at 4° C. […] Gelation temperature of the formulation was determined by the “visual tube inversion method”, as described before.

[7] = factor removed from the culture medium
[8] = named factor removed, versus EFICVP6

Compound | effect on differentiation of hair cells [1] | differentiation to Atoh-1+ cells [2] | initial burst release ([3]; in 2 h) [%] | cumulative release [3] [%] | importance of the factor for Lgr5-GFP expression [4, 7] | importance of the factor for cell proliferation [4, 7] | GFP+ cell number [4] | GFP+ percentage [4] [%] | decrease of GFP+ cell number [4, 8] [fold] | decrease of GFP+ percentage [4, 8] [fold] | decrease of total cell number [4, 8] [fold] | GFP+ colony formation [5] | proliferation of adult Lgr5 cells [5] | Lgr5-GFP expression, effect of addition [4] | cell proliferation, effect of addition [4] | spontaneous differentiation of hair cells ([2]; Atoh1-nGFP mouse line, 7 days) | concentration that inhibited gelation of poloxamer-407 solution [6] | release kinetics [3] | initial burst release ([3]; in 0.5 h) [%]
Cc1c[nH]c(-c2cnc(NCCNc3ccc(C#N)cn3)nc2-c2ccc(Cl)cc2Cl)n1 [CHIR, 6-[[2-[[4-(2,4-dichlorophenyl)-5-(5-methyl-1H-imidazol-2-yl)-2-pyrimidinyl]amino]ethyl]amino]-3-pyridinecarbonitrile] | increases the differentiation efficiency of a Notch inhibitor | can promote differentiation to Atoh-1+ cells | 10 | 33 | critical for cell proliferation and GFP expression; also recorded: greatly impacted GFP expression; also recorded: greatest effect on Lgr5 expression; also recorded: important to promote cell proliferation and GFP expression | critical for cell proliferation and GFP expression; also recorded: greatly impacted cell proliferation; also recorded: greatest effect on proliferation; also recorded: important to promote cell proliferation and GFP expression | ~65 cells | 1.3 | ~4000 | ~50 | ~100 |  |  |  |  |  |  |  | 
C/C(=C\c1ccc(C(=O)O)cc1)c1ccc2c(c1)C(C)(C)CCC2(C)C [TTNPB] |  |  |  |  |  |  |  |  |  |  |  | formation of GFP^+ colonies | increase cell proliferation; also recorded: significantly promoted the proliferation of cultured cells; also recorded: promote the proliferation of adult Lgr5 inner ear progenitor cells | didn't increase GFP expression | increased cell proliferation; also recorded: slightly increased cell proliferation |  |  |  | 
CCCC(CCC)C(=O)O [VPA, 2-propylpentanoic acid] | inhibit the differentiation of hair cells |  |  | 98 | important for GFP expression; also recorded: greater impact on GFP maintenance; also recorded: greatly reduced Lgr5 expression; also recorded: important to promote GFP maintenance |  |  | 28 | 2 | 2 |  |  |  |  |  | inhibited the differentiation of inner ear progenitor cells towards Atoh1 positive hair cells; also recorded: suppressed spontaneous differentiation of hair cells; also recorded: functions through suppressing differentiation | greater than 88 mg/ml | significantly faster as compared to that of CHIR | 17
O=C1O[C@H]([C@@H](O)CO)C(O)=C1OP(=O)(O)O [pVc, 2-phospho-L-ascorbic acid] | inhibit the differentiation of hair cells |  |  |  | greater impact on GFP maintenance; also recorded: greatly reduced Lgr5 expression; also recorded: important to promote GFP maintenance |  | 1.1×10^5 cells | 25 | 2 | 2 |  |  |  | promoted GFP expression from Lgr5-GFP inner ear progenitor cells; also recorded: promotes GFP expression | increases cell proliferation of Lgr5 inner ear progenitor cells |  | > 14000 µg/mL |  | 
